25 compounds from US7109193B2, “Tricyclic diazepines tocolytic oxytocin receptor antagonists” (Wyeth, priority 2001, dated 2006) can be followed below.

The target of the experiment is T1, human vasopressin V1a receptor subtype (Homo sapiens, UniProt P37288).
T1 construct: host or cells: CHO cells (pZeoSV vector for the Thibonnier line)
In words: Vasopressin binding in Chinese Hamster Ovary cell membranes expressing human vasopressin V1a subtype receptors. The conditions noted are these: CHO cell membranes, [3H]Manning ligand; for IC50: values in parentheses; for inhibition at 0.1 µM: 100 nM, values without parentheses. An outline of the steps: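 Displacement of [3H]Manning ligand (8 nM working solution) from human V1a receptors in CHO cell membranes, 25–50 μg protein per well. Incubation ran 60 min at room temperature in 50 mM Tris-HCl pH 7.4 with protease inhibitors, followed by filtration and scintillation counting. Results are given as IC50 or percent inhibition.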

T1 sequence (P37288 whole entry): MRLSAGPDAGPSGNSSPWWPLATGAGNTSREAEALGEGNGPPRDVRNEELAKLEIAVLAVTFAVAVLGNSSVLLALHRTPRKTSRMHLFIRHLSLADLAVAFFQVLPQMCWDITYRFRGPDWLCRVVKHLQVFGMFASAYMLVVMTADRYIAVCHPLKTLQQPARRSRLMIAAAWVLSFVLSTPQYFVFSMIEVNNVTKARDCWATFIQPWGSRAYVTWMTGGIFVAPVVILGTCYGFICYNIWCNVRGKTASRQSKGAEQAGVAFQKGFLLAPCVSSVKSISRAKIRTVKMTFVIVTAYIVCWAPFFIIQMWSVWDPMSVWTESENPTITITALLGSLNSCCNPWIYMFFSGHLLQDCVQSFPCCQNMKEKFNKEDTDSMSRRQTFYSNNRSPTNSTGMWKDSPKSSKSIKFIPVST

On to `COc1ccccc1-c1ccc(C(=O)N2Cc3ccc(C(=O)N4CCN(CCCN(C)C)CC4)n3Cc3ccccc32)cc1C` [Example 245, {4-[3-(Dimethylamino)propyl]-1-piperazinyl}{10-[(2′-methoxy-2-methyl[1,1′-biphenyl]-4-yl)carbonyl]-10,11-dihydro-5H-pyrrolo[2,1-c][1,4]benzodiazepin-3-yl}methanone], for which the concentration for half-maximal inhibition (IC50) was 933 nM. Turning to `Cc1cc(C(=O)N2Cc3ccc(C(=O)N(C)CCCN(C)C)n3Cc3ccccc32)ccc1-c1ccccc1C(F)(F)F` [Example 97, N-[3-(Dimethylamino)propyl]-N-methyl-10-{[2-methyl-2′-(trifluoromethyl)[1,1′-biphenyl]-4-yl]carbonyl}-10,11-dihydro-5H-pyrrolo[2,1-c][1,4]benzodiazepine-3-carboxamide], the half-inhibitory concentration (IC50) worked out at 1090 nM. As to `COc1cccc(-c2ccc(C(=O)N3Cc4ccc(C(=O)N5CCC[C@H]5CN5CCCC5)n4Cc4ccccc43)cc2C)c1` [Example 263, {10-[(3′-Methoxy-2-methyl[1,1′-biphenyl]-4-yl)carbonyl]-10,11-dihydro-5H-pyrrolo[2,1-c][1,4]benzodiazepin-3-yl}[(2S)-2-(1-pyrrolidinylmethyl)pyrrolidinyl]methanone], the IC50 was 202 nM. On to `COc1cc(C(=O)N2Cc3ccc(C(=O)NCCCN(C)C)n3Cc3ccccc32)ccc1-c1cccc2ccccc12` [Example 80, N-[3-(Dimethylamino)propyl]-10-[3-methoxy-4-(1-naphthyl)benzoyl]-10,11-dihydro-5H-pyrrolo[2,1-c][1,4]benzodiazepine-3-carboxamide], for which the inhibition at 0.1 µM is 16%. As to `COc1cccc(-c2ccc(C(=O)N3Cc4ccc(C(=O)N(C)CCN(C)C)n4Cc4ccccc43)cc2OC)c1` [Example 95, 10-[(2,3′-Dimethoxy[1,1′-biphenyl]-4-yl)carbonyl]-N-[2-(dimethylamino)ethyl]-N-methyl-10,11-dihydro-5H-pyrrolo[2,1-c][1,4]benzodiazepine-3-carboxamide], the inhibition at 0.1 µM was determined as 68%. `COc1cc(-c2ccccc2Cl)c(Cl)cc1C(=O)N1Cc2ccc(C(=O)N(C)C3CCN(C)CC3)n2Cc2ccccc21` [Example 43, 10-[(2′-Chloro-6-chloro-3-methoxy-[1,1′-biphenyl]-4-yl)carbonyl]-N-methyl-N-(1-methylpiperidin-4-yl)-10,11-dihydro-5H-pyrrolo[2,1-c][1,4]benzodiazepine-3-carboxamide]: the IC50 was 312 nM. For `C=CCN1CCN(C(=O)c2ccc3n2Cc2ccccc2N(C(=O)c2ccc(-c4ccccc4C)c(C)c2)C3)CC1` [Example 220, (4-Allyl-1-piperazinyl){10-[(2,2′-dimethyl[1,1′-biphenyl]-4-yl)carbonyl]-10,11-dihydro-5H -pyrrolo[2,1-c][1,4]benzodiazepin-3-yl}methanone], the half-inhibitory concentration (IC50) turned out to be 387 nM. `COc1cc(C(=O)N2Cc3ccc(C(=O)N(C)CCN(C)C)n3Cc3ccccc32)ccc1-c1cccc2ccccc12` [Example 93, N-[2-(Dimethylamino)ethyl]-10-[3-methoxy-4-(1-naphthyl)benzoyl]-N-methyl-10,11-dihydro-5H-pyrrolo[2,1-c][1,4]benzodiazepine-3-carboxamide]: the inhibition at 0.1 µM turned out to be 29%. Turning to `COc1cc(-c2ccccc2F)c(Cl)cc1C(=O)N1Cc2cccn2Cc2ccccc21` [Example 18B, 10-{[6-Chloro-3-methoxy-2′-fluoro-[1,1′-biphenyl]-4-yl]carbonyl}-10,11-dihydro-5H-pyrrolo[2,1-c][1,4]benzodiazepine], the IC50 turned out to be 386 nM. The same measure, in the same setting: next, `Cc1cc(C(=O)N2Cc3ccc(C(=O)NC(=N)N)n3Cc3ccccc32)ccc1-c1ccccc1C(F)(F)F` [Example 8, N-[(10-{[2-methyl-2′-(trifluoromethyl)[1,1′-biphenyl]-4-yl]carbonyl}-10,11-dihydro-5H-pyrrolo[2,1-c][1,4]benzodiazepin-3-yl)carbonyl]guanidine]: 1370 nM; `COc1cc(-c2ccccc2C)c(Cl)cc1C(=O)N1Cc2ccc(C(=O)N(C)CCCN(C)C)n2Cc2ccccc21` [Example 98, 10-[(6-Chloro-3-methoxy-2′-methyl[1,1′-biphenyl]-4-yl)carbonyl]-N-[3-(dimethylamino)propyl]-N-methyl-10,11-dihydro-5H-pyrrolo[2,1-c][1,4]benzodiazepine-3-carboxamide]: 238 nM; `Cc1cc(C(=O)N2Cc3ccc(C(=O)N4CCN(CCN(C)C)CC4)n3Cc3ccccc32)ccc1-c1ccccc1C(F)(F)F` [Example 196, {4-[2-(Dimethylamino)ethyl]-1-piperazinyl}(10-{[2-methyl-2′-(trifluoromethyl)[1,1′-biphenyl]-4-yl]carbonyl}-10,11-dihydro-5H-pyrrolo[2,1-c][1,4]benzodiazepin-3-yl)methanone]: 1240 nM.

Take `COc1cc(C(=O)N2Cc3ccc(C(=O)N(C)CCN(C)C)n3Cc3ccccc32)ccc1-c1ccccc1C(F)(F)F` [Example 22, N-Methyl-[N-(2-dimethylamino)ethyl]-10-{[2-methoxy-2′-trifluoromethyl-[1,1′-biphenyl]-4-yl]carbonyl}-10,11-dihydro-5H-pyrrolo[2,1-c][1,4]benzodiazepine-3-carboxamide]: the IC50 turned out to be 225 nM. As for `Cc1cc(C(=O)N2Cc3ccc(C(=O)N4CCN(CCCN(C)C)CC4)n3Cc3ccccc32)ccc1-c1ccccc1C(F)(F)F` [Example 4, [4-(3-Dimethylaminopropyl)-piperazin-1-yl]-[10-(2-methyl-2′-trifluoromethyl-[1,1′-biphenyl]-4-yl)carbonyl]-[10,11-dihydro-5H-pyrrolo[2,1-c][1,4]benzodiazepin-3-yl]-methanone], the inhibition at 0.1 µM was 14%.

Regarding `Cc1cc(C(=O)N2Cc3ccc(C(=O)N4CCN(C)CC4)n3Cc3ccccc32)ccc1-c1ccccc1C(F)(F)F` [Example 2, (4-Methyl-piperazin-1-yl)-[10-(2-methyl-2′-trifluoromethyl-[1,1′-biphenyl]-4-yl)-carbonyl]-10,11-dihydro-5H-pyrrolo[2,1-c][1,4]benzodiazepin-3-yl-methanone], the half-inhibitory concentration (IC50) worked out at 2720 nM. Turning to `COc1cccc(-c2ccc(C(=O)N3Cc4ccc(C(=O)N5CC[C@@H](N(C)C)C5)n4Cc4ccccc43)cc2C)c1` [Example 278, [(3R)-3-(Dimethylamino)pyrrolidinyl]{10-[(3′-methoxy-2-methyl[1,1′-biphenyl]-4-yl)carbonyl]-10,11-dihydro-5H-pyrrolo[2,1-c][1,4]benzodiazepin-3-yl}methanone], the IC50 was found to be 303 nM. As to `O=C(c1ccc(-c2cccc3ccccc23)nc1)N1Cc2cccn2Cc2ccccc21` [Example 28, [6-(Naphthalen-1-yl)-pyridin-3-yl]-[10,11-dihydro-5H-pyrrolo[2,1-c][1,4]benzodiazepin-10-yl]methanone], the IC50 turned out to be 66.6 nM. Turning to `COc1ccccc1-c1ccc(C(=O)N2Cc3ccc(C(=O)N(C)CCN(C)C)n3Cc3ccccc32)cc1OC` [Example 94, 10-[(2,2′-Dimethoxy[1,1′-biphenyl]-4-yl)carbonyl]-N-[2-(dimethylamino)ethyl]-N-methyl-10,11-dihydro-5H-pyrrolo[2,1-c][1,4]benzodiazepine-3-carboxamide], the inhibition at 0.1 µM was 28%. Consider `COc1cc(C(=O)N2Cc3ccc(C(=O)N(C)CCCN(C)C)n3Cc3ccccc32)ccc1-c1ccccc1C(F)(F)F` [Example 21, N-Methyl-[N-(3-dimethylamino)propyl]-10-{[2-methoxy-2′-trifluoromethyl-[1,1′-biphenyl]-4-yl]carbonyl}-10,11-dihydro-5H-pyrrolo[2,1-c][1,4]benzodiazepin-3-carboxamide], for which the concentration for half-maximal inhibition (IC50) came out at 378 nM. In the case of `C=CCN1CCN(C(=O)c2ccc3n2Cc2ccccc2N(C(=O)c2cc(Cl)c(-c4ccccc4C)cc2OC)C3)CC1` [Example 219, (4-Allyl-1-piperazinyl){10-[(6-chloro-3-methoxy-2′-methyl[1,1′-biphenyl]-4-yl)carbonyl]-10,11-dihydro-5H-pyrrolo[2,1-c][1,4]benzodiazepin-3-yl}methanone], the IC50 amounted to 1810 nM. `COc1ccccc1-c1ccc(C(=O)N2Cc3ccc(C(=O)NCCCN(C)C)n3Cc3ccccc32)cc1OC` [Example 81, 10-[(2,2′-Dimethoxy[1,1′-biphenyl]-4-yl)carbonyl]-N-[3-(dimethylamino)propyl]-10,11-dihydro-5H-pyrrolo[2,1-c][1,4]benzodiazepine-3-carboxamide]: the inhibition at 0.1 µM is 4%.

On to `COc1ccccc1-c1ccc(C(=O)N2Cc3ccc(C(=O)N4CCN(CCN(C)C)CC4)n3Cc3ccccc32)cc1C` [Example 195, {4-[2-(Dimethylamino)ethyl]-1-piperazinyl}{10-[(2′-methoxy-2-methyl[1,1′-biphenyl]-4-yl)carbonyl]-10,11-dihydro-5H-pyrrolo[2,1-c][1,4]benzodiazepin-3-yl}methanone], for which the IC50 was found to be 367 nM. Still for that read-out and setting: the value for `COc1cc(-c2ccccc2C)c(Cl)cc1C(=O)N1Cc2ccc(C(=O)N3CCCN(C)CC3)n2Cc2ccccc21` [Example 60, {10-[(6-Chloro-3-methoxy-2′-methyl[1,1′-biphenyl]-4-yl)carbonyl]-10,11-dihydro-5H-pyrrolo[2,1-c][1,4]benzodiazepin-3-yl}(4-methyl-1,4-diazepan-1-yl)methanone] was 681 nM; that for `C=CCN1CCN(C(=O)c2ccc3n2Cc2ccccc2N(C(=O)c2ccc(-c4ccccc4OC)cc2)C3)CC1` [Example 221, (4-Allyl-1-piperazinyl){10-[(2′-methoxy[1,1′-biphenyl]4-yl)carbonyl]-10,11-dihydro-5H -pyrrolo[2,1-c][1,4]benzodiazepin-3-yl}methanone] was 818 nM; that for `COc1cc(-c2ccccc2C)c(Cl)cc1C(=O)N1Cc2ccc(C(=O)N3CCC(N4CCCCC4)CC3)n2Cc2ccccc21` [Example 110, {10-[(6-Chloro-3-methoxy-2′-methyl[1,1′-biphenyl]-4-yl)carbonyl]-10,11-dihydro-5H-pyrrolo[2,1-c][1,4]benzodiazepin-3-yl}[4-(1-piperidinyl)-1-piperidinyl]methanone] was 661 nM.
